We go through three compounds from patent US8198273B2, “Compounds and methods for kinase modulation, and indications therefor” (Plexxikon Inc., priority 2009, dated 2012).

Data set [1] relates to A375 melanoma cells (B-Raf V600E). The experiment in a line: A375 cell growth inhibition (ATPlite). In kind it is cell-based. The settings on record: Homo sapiens, A-375, 72 h; A375, 3 days incubation. The method, then: (§1) Compounds are assessed in a variety of cell based assays. For example human cell lines with B-Raf V600E mutation (A375 melanoma, SKMEL3 melanoma, and COL0205 colon adenocarcinoma), as well as tumorigenic cell lines with wild-type B-RAF (SW620 colon adenocarcinoma) or with Ras mutations (SKMEL2 melanoma and IPC298 melanoma). Similar assays may be used to assess additional tumorigenic cell lines with Ras mutations, including, but not limited to, M202, M207, M243, M244, M296, S117, HCT116, HCT15, DLD1, MiaPaCa, A549, NCI-H23, NCI-H460, HOP62, MDA-MB231, Hs-578T, HL60, MOLT-4, and CCRF-CEM.
(§2) On day 1, cells are counted, then centrifuged in a conical tube for 5 minutes at 1000 rpm. The supernatant is removed and cells are re-suspended as follows: • SW620 (ATCC catalog #CCL-27): resuspend in Leibovitz's L-15 medium, 2 mM L-glutamine, 10% fetal bovine serum to 6×10^4 cells/mL. • A375 (ATCC catalog #CRL-1619): resuspend in Dulbecco's modified Eagle's medium, 4 mM L-glutamine, 4.5 g/L D-glucose, 10% fetal bovine serum to 6×10^4 cells/mL. • COL0205 (ATCC catalog #CCL-222): resuspend in RPMI 1640, 2 mM L-glutamine, 1.5 g/L sodium bicarbonate, 4.5 g/L D-glucose, 10 mM HEPES, 1.0 mM sodium pyruvate, 10% fetal bovine serum to 6×10^4 cells/mL. • SKMEL2 (ATCC catalog #HTB-68): resuspend in Minimum Eagle essential medium, 2 mM L-glutamine, 1.5 g/L sodium bicarbonate, 0.1 mM non-essential amino acids, 1.0 mM sodium pyruvate, 10% fetal bovine serum to 6×10^4 cells/mL. • SKMEL3 (ATCC catalog #HTB-69): resuspend in McCoy's 5A medium, 1.5 mM L-glutamine, 15% fetal bovine serum to 6×10^4 cells/mL. • IPC298 (DSMZ catalog #ACC 251): resuspend in RPMI 1640, 2 mM L-glutamine, 10% fetal bovine serum to 6×10^4 cells/mL.
(§3) The cells are plated, 50 μL in each well of a 96-well dish (Corning 3610) and incubated at 37° C. in 5% CO2 overnight, cells plated to a final concentration of cells as follows:
(§4) On day 2, compound at a maximum concentration of 5 mM is serially diluted 1:3 for a total of 8 point titration with DMSO as a control. A 1 μL aliquot of each dilution point and control is added to 249 μL growth media and 50 μL is added to a well containing cells, providing 10 μM compound at the maximum concentration point. The cells are incubated for 3 days at 37° C. in 5% CO2.
(§5) On day 5, ATPlite 1 step Luminescence Assay System (Perkin Elmer #6016739) is brought to room temperature along with the cell cultures. ATPlite is added 25 μL to each well, shake for 2 minutes, and the cells are incubated at room temperature for 10 minutes, then luminescence is read on Safire reader. The measured luminescence correlates directly with cell number, such that the reading as a function of compound concentration is used to determine the IC50 value.
(§6) It is understood that the results of these assays may vary as assay conditions are varied. Inhibition levels determined under the conditions described herein represent a relative activity for the compounds tested under the specific conditions employed. The cell based assays are likely to show variability due to the complexity of the system and the sensitivity thereof to any changes in the assay conditions. […] Results for compounds that are tested and show substantially no inhibition below the highest tested concentration are represented as “-” in the tables below. In some instances, the compounds were not tested in all of the assays, or assay results were not valid, as indicated by NA in the tables below.

Data set [2] can be described thus: Relative solubility by turbidity in aqueous buffers of varying pH. The format is physicochemical. As for the experimental part: As an indication of relative solubility, the turbidity of compounds in aqueous solutions is assessed. To assess possible compound properties in different physiological compartments, such as stomach, intestine, and blood, a series of aqueous buffers with varying pH is used. Thus each compound is diluted into four different physiologically relevant buffers and solution turbidity is measured by spectrophotometry.
Compounds are dissolved at a concentration of 25 mM in dimethyl sulfoxide, then serially diluted 1:1 into a 96 well plate, diluting 10 times in pure dimethyl sulfoxide, with the final well of each row a dimethyl sulfoxide blank. In an assay plate, 99 μL of appropriate buffer is added to each well, and 1 μL of each sample dilution is added to the buffer, achieving a range of final total concentrations in aqueous solutions having different pH. The buffers used are Simulated Gastric Fluid (SGF-pH 1.5) 0.5M NaCl, pH 1.5; Simulated Intestinal fluid (SIF-pH 4.5 and pH 6.8) 0.05M NaH2PO4, pH 4.5 and 6.8; and Hepes Buffer (HEPES-pH 7.4) 10 mM HEPES, 150 mM NaCl, pH 7.4. Control compounds pyrene, estriol and propranolol HCl are also assessed. Plates are spun and then mixed for 1 minute, and the absorbance is read using a Tecan Safire II to read wavelengths in the visible range (490, 535, and 650 nm) at four locations per well, reflecting the degree of turbidity present. The average optical density for each wavelength in each well is graphed vs. compound concentration, and the concentration at which the curve crosses a threshold O.D. of 0.01 for each wavelength is reported as the endpoint turbidity assay result. The average of the three wavelengths is used to compare turbidity of compounds. Compounds are considered to have low solubility if the threshold concentration is <31.3 04, moderate solubility if the threshold concentration is 31.3 μM to 250 μM, and high solubility if the threshold concentration is >250 μM.

Data set [3] deals with SKMEL2 melanoma cells (Ras mutation). The experiment in a line: SKMEL2 cell growth inhibition (ATPlite). The settings on record: Homo sapiens, SK-MEL-2, 72 h; SKMEL2, 3 days incubation. The format is cell-based. As for the experimental part: as §1, §2, §3
SKMEL2: 2,000 cells per well.
as §4, §5, §6
On the technique in general: In ATP-based viability assays light output follows the ATP content of the culture.

Data set [4] deals with SW620 colon adenocarcinoma cells (wild-type B-RAF). Description: SW620 cell growth inhibition (ATPlite). The settings on record: Homo sapiens, SW-620, 72 h; SW620, 3 days incubation. The format is cell-based. The method, then: as §1, §2, §3, §4, §5, §6
The next data set has as its target B-Raf (Homo sapiens, UniProt P15056). The experiment in a line: B-Raf biochemical kinase inhibition (AlphaScreen, biotin-MEK1 substrate). The settings on record: 100 μM ATP. The method, then:
(§7) Compounds to be tested are diluted in dimethyl sulfoxide to a concentration of 0.1 mM. These are serially diluted 15 μL into 30 μL of dimethyl sulfoxide seven times in 96 well plates for a total of 8 dilution points, and for each dilution point 1 μL is added to a well of an assay plate. […] The reaction is started with addition of 10 μL of 200 μM ATP (i.e. final 100 μM ATP). […] The plates are incubated for 3 hours at room temperature and read on Envision reader (Perkin Elmer). […] The signal vs. compound concentration is used to determine the IC50.

The next data set addresses B-Raf V600E (Homo sapiens, UniProt P15056, V600E). Description: B-Raf V600E biochemical kinase inhibition (AlphaScreen, biotin-MEK1 substrate). The settings on record: 100 μM ATP. The method, then: as §7
(In general: Bead proximity is the source of the signal in Alpha formats.)

Another data set concerns the target T1, CYP1A2 (Homo sapiens, UniProt P05177).
T1 sequence (P05177 1-516): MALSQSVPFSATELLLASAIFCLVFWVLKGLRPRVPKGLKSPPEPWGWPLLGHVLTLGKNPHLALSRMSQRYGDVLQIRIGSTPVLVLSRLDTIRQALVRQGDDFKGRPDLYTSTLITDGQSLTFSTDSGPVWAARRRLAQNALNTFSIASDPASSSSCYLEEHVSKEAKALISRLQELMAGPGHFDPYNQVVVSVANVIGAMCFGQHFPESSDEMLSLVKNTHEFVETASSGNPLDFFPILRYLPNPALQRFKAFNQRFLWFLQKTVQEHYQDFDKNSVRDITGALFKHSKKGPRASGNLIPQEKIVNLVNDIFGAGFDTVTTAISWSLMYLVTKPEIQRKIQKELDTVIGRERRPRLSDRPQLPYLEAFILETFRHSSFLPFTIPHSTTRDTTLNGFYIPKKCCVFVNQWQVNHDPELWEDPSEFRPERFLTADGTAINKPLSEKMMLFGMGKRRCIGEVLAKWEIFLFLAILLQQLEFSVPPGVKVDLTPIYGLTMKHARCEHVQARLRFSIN
Description: CYP1A2 inhibition (fluorescent substrate). The settings on record: CYP1A2, CEC substrate; read-out: Cyp IC50 1A2. The format is in vitro ADME. The method, then:
(§8) CYP (Cytochrome P450) enzymes are the major drug metabolizing enzymes present in the liver. The inhibition of CYP enzyme activity (IC50) for each of CYP1A2, CYP2C19, CYP2C9, CYP2D6, CYP3A4(BFC) and CYP3A4(BQ) is determined for compounds, where inhibition of metabolism of a known substrate leads to a decrease in the fluorescence of the metabolized product. The fluorescence of the product is monitored as a function of compound concentration.
(§9) Compounds are dissolved in dimethyl sulfoxide to a concentration of 100 mM. These are diluted 1 μL into 82 μL of acetonitrile. […] These are then serially diluted 1:1 (160 μL to 160 μL co-factor mix) for a total of 10 points. A 10 μL aliquot of this final mixture is dispensed into 384 well assay plates and incubated for 10 minutes at 37° C. […] Assay plates are incubated at 37° C. […] The signal versus compound concentration is used to determine the IC50. The enzymes and substrates for this assay are obtained from BD Biosciences.

For another data set, the target named is CYP2C9 (Homo sapiens, UniProt P11712). Description: CYP2C9 inhibition (fluorescent substrate). In kind it is in vitro ADME. The settings on record: CYP2C9, MFC substrate; read-out: Cyp IC50 2C9. The method, then: as §8, §9
A further data set concerns the target CYP2C19 (Homo sapiens, UniProt P33261). The experiment in a line: CYP2C19 inhibition (fluorescent substrate). In kind it is in vitro ADME. Particulars: CYP2C19, CEC substrate; read-out: Cyp IC50 2C19. As for the experimental part:
as §8, §9

Another data set addresses CYP3A4(BQ) (Homo sapiens, UniProt P08684). Description: CYP3A4(BQ) inhibition (fluorescent substrate). The format is in vitro ADME. Particulars: read-out: Cyp IC50 3A4(BQ). As for the experimental part: as §9, with “CYP (Cytochrome P450) enzymes are the major drug metabolizing enzymes present in the liver. The inhibition of CYP enzyme activity (IC50) for each of CYP1A2, CYP2C19, CYP2C9, CYP2D6, CYP3A4(BFC) and CYP3A4(BQ) is determined for compounds, where inhibition of metabolism of a known substrate leads to a decrease in the fluorescence of the metabolized product. The fluorescence of the product is monitored as a function of compound concentration. Compounds” for “Compounds”

For another data set, the target named is CYP2D6 (Homo sapiens, UniProt P10635). Description: CYP2D6 inhibition (fluorescent substrate). In kind it is in vitro ADME. Particulars: CYP2D6, AMMC substrate; read-out: Cyp IC50 2D6. As for the experimental part: as §8, §9
The target in the next data set is CYP3A4(BFC) (Homo sapiens, UniProt P08684). Description: CYP3A4(BFC) inhibition (fluorescent substrate). The format is in vitro ADME. The settings on record: read-out: Cyp IC50 3A4(BFC). The method, then: as §9, with “CYP (Cytochrome P450) enzymes are the major drug metabolizing enzymes present in the liver. The inhibition of CYP enzyme activity (IC50) for each of CYP1A2, CYP2C19, CYP2C9, CYP2D6, CYP3A4(BFC) and CYP3A4(BQ) is determined for compounds, where inhibition of metabolism of a known substrate leads to a decrease in the fluorescence of the metabolized product. The fluorescence of the product is monitored as a function of compound concentration. Compounds” for “Compounds”

The next data set has as its target c-Raf-1 (Homo sapiens, UniProt P04049). Description: c-Raf-1 biochemical kinase inhibition (AlphaScreen, biotin-MEK1 substrate). The settings on record: 100 μM ATP. As for the experimental part:
as §7

Chain of B-Raf V600E (P15056 whole entry V600E): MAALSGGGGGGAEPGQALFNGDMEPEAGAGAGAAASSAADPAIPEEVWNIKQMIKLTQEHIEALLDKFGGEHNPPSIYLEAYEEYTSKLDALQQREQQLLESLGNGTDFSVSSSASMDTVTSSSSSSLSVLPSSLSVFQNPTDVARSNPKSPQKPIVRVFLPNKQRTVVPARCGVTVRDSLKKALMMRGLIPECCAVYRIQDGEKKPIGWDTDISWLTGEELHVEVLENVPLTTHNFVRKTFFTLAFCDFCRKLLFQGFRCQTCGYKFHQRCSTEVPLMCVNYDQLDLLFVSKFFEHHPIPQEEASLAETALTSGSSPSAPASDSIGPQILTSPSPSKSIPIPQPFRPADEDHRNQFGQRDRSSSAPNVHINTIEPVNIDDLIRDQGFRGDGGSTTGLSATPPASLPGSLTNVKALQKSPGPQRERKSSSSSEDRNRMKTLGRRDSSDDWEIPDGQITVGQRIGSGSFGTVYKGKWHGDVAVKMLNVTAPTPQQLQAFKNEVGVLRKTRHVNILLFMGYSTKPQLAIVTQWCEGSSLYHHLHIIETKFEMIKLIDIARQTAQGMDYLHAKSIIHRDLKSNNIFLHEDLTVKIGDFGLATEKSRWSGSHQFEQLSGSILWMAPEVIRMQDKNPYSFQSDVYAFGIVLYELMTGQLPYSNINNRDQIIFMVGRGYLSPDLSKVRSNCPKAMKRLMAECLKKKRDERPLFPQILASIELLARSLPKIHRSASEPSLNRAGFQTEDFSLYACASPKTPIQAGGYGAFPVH
Chain of B-Raf (P15056 whole entry): as the sequence (P15056 whole entry V600E) above, with E600V counted along it
Chain of CYP2D6 (P10635 whole entry): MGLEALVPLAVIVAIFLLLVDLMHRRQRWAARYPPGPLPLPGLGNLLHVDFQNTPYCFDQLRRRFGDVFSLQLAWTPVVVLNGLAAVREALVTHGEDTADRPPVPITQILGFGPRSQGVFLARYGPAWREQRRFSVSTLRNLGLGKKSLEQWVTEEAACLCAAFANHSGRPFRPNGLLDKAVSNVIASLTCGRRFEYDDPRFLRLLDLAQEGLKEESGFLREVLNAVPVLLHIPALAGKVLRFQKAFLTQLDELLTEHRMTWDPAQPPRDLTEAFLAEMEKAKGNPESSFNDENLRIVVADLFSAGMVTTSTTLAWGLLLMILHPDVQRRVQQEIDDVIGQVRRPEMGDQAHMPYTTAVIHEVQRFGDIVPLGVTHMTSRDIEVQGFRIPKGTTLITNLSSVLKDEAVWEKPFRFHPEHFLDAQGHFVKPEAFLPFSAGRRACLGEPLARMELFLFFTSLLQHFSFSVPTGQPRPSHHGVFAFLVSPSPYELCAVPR
Chain of CYP2C19 (P33261 whole entry): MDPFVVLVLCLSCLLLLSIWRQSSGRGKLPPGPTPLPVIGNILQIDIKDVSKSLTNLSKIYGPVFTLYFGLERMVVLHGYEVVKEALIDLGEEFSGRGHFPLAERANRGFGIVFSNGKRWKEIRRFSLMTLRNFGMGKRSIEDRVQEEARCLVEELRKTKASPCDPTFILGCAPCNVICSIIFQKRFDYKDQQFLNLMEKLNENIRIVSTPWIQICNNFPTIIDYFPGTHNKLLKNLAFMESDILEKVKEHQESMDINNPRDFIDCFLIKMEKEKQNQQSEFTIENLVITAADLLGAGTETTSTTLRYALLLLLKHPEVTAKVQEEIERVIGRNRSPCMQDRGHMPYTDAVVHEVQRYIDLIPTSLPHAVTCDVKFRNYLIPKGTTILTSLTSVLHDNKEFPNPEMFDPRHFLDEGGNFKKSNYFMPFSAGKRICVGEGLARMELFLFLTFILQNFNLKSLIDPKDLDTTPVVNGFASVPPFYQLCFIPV
Chain of CYP2C9 (P11712 whole entry): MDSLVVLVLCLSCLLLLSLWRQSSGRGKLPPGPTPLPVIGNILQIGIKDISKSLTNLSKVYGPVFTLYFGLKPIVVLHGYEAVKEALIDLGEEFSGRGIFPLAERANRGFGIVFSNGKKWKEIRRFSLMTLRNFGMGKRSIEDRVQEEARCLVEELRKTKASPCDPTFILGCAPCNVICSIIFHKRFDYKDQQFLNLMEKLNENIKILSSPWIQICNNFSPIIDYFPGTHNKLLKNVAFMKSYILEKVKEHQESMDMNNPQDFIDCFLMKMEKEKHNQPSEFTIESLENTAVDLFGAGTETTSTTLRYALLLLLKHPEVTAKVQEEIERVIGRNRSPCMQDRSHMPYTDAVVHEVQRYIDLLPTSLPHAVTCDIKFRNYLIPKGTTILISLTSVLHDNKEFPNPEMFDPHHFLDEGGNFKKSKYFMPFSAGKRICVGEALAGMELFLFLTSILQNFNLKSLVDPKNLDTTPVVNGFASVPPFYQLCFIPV
Chain of CYP3A4(BQ) (P08684 whole entry): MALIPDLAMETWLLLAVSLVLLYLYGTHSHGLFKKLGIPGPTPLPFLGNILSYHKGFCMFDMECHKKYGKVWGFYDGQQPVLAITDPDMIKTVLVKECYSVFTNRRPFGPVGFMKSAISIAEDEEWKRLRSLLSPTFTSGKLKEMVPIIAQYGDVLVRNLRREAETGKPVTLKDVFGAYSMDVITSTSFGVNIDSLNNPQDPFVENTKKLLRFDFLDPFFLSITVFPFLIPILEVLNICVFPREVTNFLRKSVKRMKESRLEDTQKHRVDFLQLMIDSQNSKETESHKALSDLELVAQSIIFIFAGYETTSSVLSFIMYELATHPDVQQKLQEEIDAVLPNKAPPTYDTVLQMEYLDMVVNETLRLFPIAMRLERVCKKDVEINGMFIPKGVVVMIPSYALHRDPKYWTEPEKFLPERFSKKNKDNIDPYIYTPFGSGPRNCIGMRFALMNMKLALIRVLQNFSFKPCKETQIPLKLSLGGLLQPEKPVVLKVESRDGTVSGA
Chain of CYP3A4(BFC) (P08684 whole entry): as above
Chain of c-Raf-1 (P04049 whole entry): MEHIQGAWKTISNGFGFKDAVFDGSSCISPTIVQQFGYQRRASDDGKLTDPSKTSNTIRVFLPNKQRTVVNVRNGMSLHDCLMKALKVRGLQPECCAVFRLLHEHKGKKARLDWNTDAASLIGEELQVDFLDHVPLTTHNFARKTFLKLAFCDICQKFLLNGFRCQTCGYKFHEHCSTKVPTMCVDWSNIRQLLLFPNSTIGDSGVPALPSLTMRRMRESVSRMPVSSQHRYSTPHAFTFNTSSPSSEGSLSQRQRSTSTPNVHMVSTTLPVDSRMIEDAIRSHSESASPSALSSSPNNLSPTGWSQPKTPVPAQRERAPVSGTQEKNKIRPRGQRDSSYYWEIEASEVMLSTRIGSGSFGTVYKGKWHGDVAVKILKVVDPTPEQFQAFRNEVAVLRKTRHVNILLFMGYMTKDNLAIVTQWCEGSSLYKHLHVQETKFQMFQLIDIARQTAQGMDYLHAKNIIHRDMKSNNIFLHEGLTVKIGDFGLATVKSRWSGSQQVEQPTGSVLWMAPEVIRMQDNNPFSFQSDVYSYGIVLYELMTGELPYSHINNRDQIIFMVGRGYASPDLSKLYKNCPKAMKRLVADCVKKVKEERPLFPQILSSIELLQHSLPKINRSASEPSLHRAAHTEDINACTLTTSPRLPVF

In the case of `N#Cc1cnc2[nH]cc(C(=O)c3cccc(NS(=O)(=O)c4cccnc4)c3F)c2c1` [P-2086, Pyridine-3-sulfonic acid [3-(5-cyano-1H-pyrrolo[2,3-b]pyridine-3-carbonyl)-2-fluoro-phenyl]-amide], the figures for the IC50 in [1], in data set [3] and in data set [4] were below 10 µM, above 10 µM and above 10 µM, respectively. Besides, in [2] (HEPES pH 7.4), the “turbidity threshold (L, M, H) 7.4” value is given as “H (high solubility if the threshold concentration is >250 μM)”. In data set [2] (SIF pH 4.5), the “turbidity threshold (L, M, H) 4.5” value is listed as “M (moderate solubility if the threshold concentration is 31.3 μM to 250 μM)”. In addition, the “turbidity threshold (L, M, H) 6.8” value in data set [2] (SIF pH 6.8) is “M (moderate solubility if the threshold concentration is 31.3 μM to 250 μM)”. Further, the “turbidity threshold (L, M, H) 1.4” value in data set [2] (buffer pH 1.4 (SGF)) is recorded as “M (moderate solubility if the threshold concentration is 31.3 μM to 250 μM)”.
Regarding `CCCS(=O)(=O)Nc1ccc(F)c(C(=O)c2c[nH]c3ncc(-c4cnc(OCCCN(C)C)nc4)cc23)c1F` [P-2203, Propane-1-sulfonic acid (3-{5-[2-(3-dimethylamino-propoxy)-pyrimidin-5-yl]-1H-pyrrolo[2,3-b]pyridine-3-carbonyl}-2,4-difluoro-phenyl)-amide], the IC50 (usually the point on the concentration scale where inhibition reaches its midpoint) in data set [1] was below 1 µM; against B-Raf it was below 0.01 µM; against B-Raf V600E it was below 0.01 µM; in data set [4] it was above 10 µM.
On to `CCCS(=O)(=O)Nc1ccc(F)c(C(=O)c2c[nH]c3ncc(-c4ccc(S(=O)(=O)C(C)C)cc4)cc23)c1F` [P-2223, Propane-1-sulfonic acid (2,4-difluoro-3-{5-[4-(propane-2-sulfonyl)-phenyl]-1H-pyrrolo[2,3-b]pyridine-3-carbonyl}-phenyl)-amide], for which the IC50 at B-Raf was below 0.01 µM; on CYP1A2, above 10 µM; on CYP2C9, above 10 µM; at CYP2C19 it was above 10 µM; at CYP3A4(BQ) it was above 10 µM; at CYP2D6 it was above 10 µM. For the same compound, the IC50 was below 0.01 µM on B-Raf V600E, above 10 µM on CYP3A4(BFC) and below 0.01 µM on c-Raf-1.
